# From US8344010B2, “Fused imidazole derivatives as TRPV3 antagonist” (Glenmark Pharmaceuticals S.A., priority 2008, dated 2013)
# Target: T1, Human TRPV3 (Homo sapiens, UniProt Q8NET8)
# T1 construct: expressed in transfected cells; host or cells: CHO cells (selected with G-418)
# T1 sequence (Q8NET8 1-790): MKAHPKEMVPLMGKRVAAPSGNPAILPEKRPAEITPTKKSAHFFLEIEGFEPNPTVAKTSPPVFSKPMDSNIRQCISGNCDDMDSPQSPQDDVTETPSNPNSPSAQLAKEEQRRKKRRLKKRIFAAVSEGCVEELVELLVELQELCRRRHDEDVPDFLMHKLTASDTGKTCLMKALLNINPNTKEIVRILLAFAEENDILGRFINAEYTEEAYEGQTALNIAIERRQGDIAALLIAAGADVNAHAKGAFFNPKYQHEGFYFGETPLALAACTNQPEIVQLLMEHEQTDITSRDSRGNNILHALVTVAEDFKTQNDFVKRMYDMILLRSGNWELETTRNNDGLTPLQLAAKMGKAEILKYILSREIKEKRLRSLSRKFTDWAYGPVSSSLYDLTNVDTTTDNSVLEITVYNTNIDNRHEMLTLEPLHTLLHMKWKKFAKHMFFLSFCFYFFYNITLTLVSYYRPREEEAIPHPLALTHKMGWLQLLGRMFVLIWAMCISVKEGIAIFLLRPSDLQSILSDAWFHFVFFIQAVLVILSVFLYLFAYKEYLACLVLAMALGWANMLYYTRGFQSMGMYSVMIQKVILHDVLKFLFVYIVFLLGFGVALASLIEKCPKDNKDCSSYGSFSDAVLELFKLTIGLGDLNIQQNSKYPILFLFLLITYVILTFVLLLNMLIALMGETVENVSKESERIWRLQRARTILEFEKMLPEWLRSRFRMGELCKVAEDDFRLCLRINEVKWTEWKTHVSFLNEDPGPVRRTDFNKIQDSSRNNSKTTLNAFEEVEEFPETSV
# Experiment: 45Calcium uptake assay: inhibition of 2-APB induced cellular uptake of radioactive calcium
# Format: cell-based
# Conditions: human TRPV3 expressing CHO cells, 2-APB 500 μM; for inhibition at 1 µM: 1 μM test compound, read-out: Percentage Inhibition (1 μM); for inhibition at 10 µM: 10 μM test compound, read-out: Percentage Inhibition (10 μM); for IC50: class symbol
# From the text: The illustrative examples of the present invention are screened for TRPV3 activity according to a modified procedure described in Tóth, A., Kedei, N., Wang, Y. and Blumberg, P. M. Life Sciences (2003), 73, 487-498. The screening of the compounds can be carried out by other methods and procedures known to a person skilled in the art. Such screening methods may be found in (a) Hu, H.-Z. et al. J. Biol. Chem. (2004), 279, 35741-35747; (b) Smith, G. D. et al. Nature (2002), 418, 186-190; (c) Peier, A. M. et al. Science (2002), 296, 2046-2049.
# Screening for TRPV3 antagonist using the ^45Calcium uptake assay The inhibition of TRPV3 receptor activation was followed as inhibition of 2-aminoethoxydiphenylborate (2-APB) induced cellular uptake of radioactive calcium. Test compounds were dissolved in dimethyl sulfoxide (DMSO) to prepare 20 mM stock solution and then diluted using plain medium with DMEM/F-12 containing 1.8 mM CaCl2 to get desired concentration. Final concentration of DMSO in the reaction was 0.5% (v/v). Human TRPV3 expressing CHO cells were grown in DMEM/F-12 medium with 10% FBS, 1% penicillin-streptomycin solution, 400 μg/ml of G-418. Cells were seeded 24 h prior to the assay in 96 well plates so as to get ˜50,000 cells per well on the day of experiment. Cells were treated with test compounds for 10 minutes followed by addition of 2-APB at a final concentration of 500 μM and 5 μCi/ml^45Ca^+2 for 4 minutes. Cells were washed and lysed using buffer containing 1% Triton X-100, 0.1% deoxycholate and 0.1% SDS. Radioactivity in the lysate was measured in Packardt Top count after addition of liquid scintillant. Concentration response curves were plotted as a % of maximal response obtained in the absence of test antagonist. IC50 value was calculated from concentration response curve by nonlinear regression analysis using GraphPad PRISM software.
# Percentage inhibition at concentrations of 1.0 μM and 10.0 μM are given in the table along with IC50 details for selected examples.
Compound,inhibition at 1 µM [%],inhibition at 10 µM [%],IC50 [µM]
"COc1cccc(/C=C/c2nc3ccccc3n2-c2ncc(C#N)s2)c1OC1CCCC1 [Example 48, 2-{2-[(E)-2-(2-[Cyclopentyloxy]-3-methoxyphenyl)vinyl]-1H-benzimidazol-1-yl}-1,3-thiazole-5-carbonitrile]",43.5,75.8,–
"COc1cccc(/C=C/c2nc3ccccc3n2-c2nc(C)c(C#N)s2)c1OC1CCCC1 [Example 49, 2-{2-[(E)-2-(2-Cyclopentyloxy-3-methoxyphenyl)vinyl]-1H-benzimidazol-1-yl}-4-methyl-1,3-thiazole-5-carbonitrile]",56.1,76.9,–
"COc1cccc(/C=C/c2nc3ccccc3n2-c2nc3ccccc3s2)c1OCC1CC1 [Example 50, 2-{2-[(E)-2-(2-Cyclopropylmethoxy-3-methoxyphenyl)vinyl]-1H-benzimidazol-1-yl}-1,3-benzothiazole]",26.1,46.6,–
"COc1ccc2nc(/C=C/c3cccc(OC)c3OC3CCCC3)n(-c3ccc(C#N)cn3)c2c1 [Example 51, 6-{2-[(E)-2-(2-Cyclopentyloxy-3-methoxyphenyl)vinyl]-6-methoxy-1H-benzimidazol-1-yl}nicotinonitrile]",96.2,97.8,0.05 to 0.1
"COc1cccc(/C=C/c2nc3ccc(Cl)cc3n2-c2ccc(C#N)cn2)c1OCC(C)C [Example 52, 6-(6-Chloro-2-{(E)-2-[3-methoxy-2-(2-methylpropoxy)phenyl]ethenyl}-1H-benzimidazol-1-yl)pyridine-3-carbonitrile]",97.7,98.4,0.05 to 0.1
"COc1cccc(/C=C/c2nc3ccc(F)cc3n2-c2ccc(C#N)cn2)c1OC1CCCC1 [Example 53, 6-{2-[(E)-2-(2-Cyclopentyloxy-3-methoxyphenyl)vinyl]-6-fluoro-1H-benzimidazol-1-yl}nicotinonitrile]",96,98.7,0.1 to 0.5
"COc1cccc(/C=C/c2nc3ccc(Cl)cc3n2-c2ccc(C#N)cn2)c1OC1CCCC1 [Example 54, 6-{6-Chloro-2-[(E)-2-(2-cyclopentyloxy-3-methoxyphenyl)vinyl]-1H-benzimidazol-1-yl}nicotinonitrile]",95.3,97.7,0.05 to 0.1
"COc1cccc(/C=C/c2nc3cc(Cl)ccc3n2-c2ccc(C#N)cn2)c1OC1CCCC1 [Example 55, 6-{5-chloro-2-[(E)-2-(2-cyclopentyloxy-3-methoxyphenyl)vinyl]-1H-benzimidazol-1-yl}nicotinonitrile]",95.9,97.6,0.1 to 0.5
"COc1ccc2c(c1)nc(/C=C/c1cccc(OC)c1OC1CCCC1)n2-c1ccc(C#N)cn1 [Example 56, 6-{2-[(E)-2-(2-[Cyclopentyloxy]-3-methoxyphenyl)vinyl]-5-methoxy-1H-benzimidazol-1-yl}nicotinonitrile]",96.8,98.9,0.1 to 0.5
"COc1cccc(/C=C/c2nc3cc(C(F)(F)F)ccc3n2-c2ccc(C#N)cn2)c1OC1CCCC1 [Example 57, 6-{2-[(E)-2-(2-[Cyclopentyloxy]-3-methoxyphenyl)vinyl]-5-(trifluoromethyl)-1H-benzimidazol-1-yl}nicotinonitrile]",93,96.1,0.1 to 0.5
"COc1cccc(/C=C/c2nc3ccc(OC(F)F)cc3n2-c2ccc(C#N)cn2)c1OC1CCCC1 [Example 58, 6-{6-(Difluoromethoxy)-2-[(E)-2-(2-[cyclopentyloxy]-3-methoxyphenyl)vinyl]-1H-benzimidazol-1-yl}nicotinonitrile]",96.3,97.9,0.1 to 0.5
"COc1cccc(/C=C/c2nc3cc(OC(F)F)ccc3n2-c2ccc(C#N)cn2)c1OC1CCCC1 [Example 59, 6-{2-[(E)-2-(2-[Cyclopentyloxy]-3-methoxyphenyl)vinyl]-5-(difluoromethoxy)-1H-benzimidazol-1-yl}nicotinonitrile]",95.8,97.9,0.05 to 0.1
"COC(=O)c1ccc(-n2c(/C=C/c3cccc(OC)c3OC3CCCC3)nc3ccc(F)cc32)nc1 [Example 60, Methyl 6-{2-[(E)-2-(2-Cyclopentyloxy-3-methoxyphenyl)vinyl]-6-fluoro-1H-benzimidazol-1-yl}nicotinate]",32.1,30.2,–
"COc1cccc(/C=C/c2nc3cc(F)c(F)cc3n2-c2ncccc2C#N)c1OC1CCCC1 [Example 61, 2-{2-[(E)-2-(2-Cyclopentyloxy-3-methoxyphenyl)vinyl]-5,6-difluoro-1H-benzimidazol-1-yl}nicotinonitrile]",44.8,96,–
"COc1cccc(/C=C/c2nc3cc(C)c(C)cc3n2-c2ccc(C#N)cn2)c1OC1CCCC1 [Example 62, 6-{2-[(E)-2-(2-[Cyclopentyloxy]-3-methoxyphenyl)vinyl]-5,6-dimethyl-1H-benzimidazol-1-yl}nicotinonitrile]",92,95.9,0.1 to 0.5
"CCOc1c(/C=C/c2nc3cc(F)c(F)cc3n2-c2ccc(C#N)cn2)cccc1OC [Example 63, 6-{2-[(E)-2-(2-Ethoxy-3-methoxyphenyl)vinyl]-5,6-difluoro-1H-benzimidazol-1-yl}nicotinonitrile]",80.8,97.7,0.1 to 0.5
"CCCCOc1c(/C=C/c2nc3cc(F)c(F)cc3n2-c2ccc(C#N)cn2)cccc1OC [Example 64, 6-{2-[(E)-2-(2-Butoxy-3-methoxyphenyl)vinyl]-5,6-difluoro-1H-benzimidazol-1-yl}-nicotinonitrile]",96.4,99.9,0.1 to 0.5
"CCCCCOc1c(/C=C/c2nc3cc(F)c(F)cc3n2-c2ccc(C#N)cn2)cccc1OC [Example 65, 6-{5,6-Difluoro-2-[(E)-2-(2-pentoxy-3-methoxyphenyl)vinyl]-1H-benzimidazol-1-yl}nicotinonitrile]",94.9,97.4,0.05 to 0.1
"COc1cccc(/C=C/c2nc3cc(F)c(F)cc3n2-c2ccc(C#N)cn2)c1OCC(C)C [Example 66, 6-{5,6-Difluoro-2-[(E)-2-(2-isobutoxy-3-methoxyphenyl)vinyl]-1H-benzimidazol-1-yl}nicotinonitrile]",98.6,99.5,0.1 to 0.5
COc1cccc(/C=C/c2nc3cc(F)c(F)cc3n2-c2ccc(C#N)cn2)c1OCC1CCC1 [Example 67],95.5,99,< 0.05
"COc1cccc(/C=C/c2nc3cc(F)c(F)cc3n2-c2ccc(C#N)cn2)c1OC1CCCC1 [Example 68, 6-{2-[(E)-2-(2-Cyclopentyloxy-3-methoxyphenyl)vinyl]-5,6-difluoro-1H-benzimidazol-1-yl}nicotinonitrile]",95,99.1,0.05 to 0.1
"COc1cccc(/C=C/c2nc3cc(F)c(F)cc3n2-c2ccc(C#N)cn2)c1O [Example 69, 6-{5,6-Difluoro-2-[(E)-2-(2-hydroxy-3-methoxyphenyl)vinyl]-1H-benzimidazol-1-yl}nicotinonitrile]",32.7,95.5,–
